Laboratory results as given in patent US9340537B2, “Benzamide derivatives for inhibiting the activity of ABL1, ABL2 and BCR-ABL1” (NOVATIS AG, priority 2012, dated 2016).

How the values were obtained:
ABL1 (64-515) [1] = target: T1, ABL1 (64-515) (Homo sapiens (Human), UniProt P00519); test: Radio ABL1 (64-515) radiometric filter-binding kinase assay; assay type: biochemical; details: 20 μM ATP
ABL1 (64-515) [2] = target: T1, ABL1 (64-515); test: Caliper ABL1 (64-515) microfluidic mobility shift kinase assay; details: read-out: Caliper ABL1 (64-515) IC50

T1 sequence (P00519 64-515): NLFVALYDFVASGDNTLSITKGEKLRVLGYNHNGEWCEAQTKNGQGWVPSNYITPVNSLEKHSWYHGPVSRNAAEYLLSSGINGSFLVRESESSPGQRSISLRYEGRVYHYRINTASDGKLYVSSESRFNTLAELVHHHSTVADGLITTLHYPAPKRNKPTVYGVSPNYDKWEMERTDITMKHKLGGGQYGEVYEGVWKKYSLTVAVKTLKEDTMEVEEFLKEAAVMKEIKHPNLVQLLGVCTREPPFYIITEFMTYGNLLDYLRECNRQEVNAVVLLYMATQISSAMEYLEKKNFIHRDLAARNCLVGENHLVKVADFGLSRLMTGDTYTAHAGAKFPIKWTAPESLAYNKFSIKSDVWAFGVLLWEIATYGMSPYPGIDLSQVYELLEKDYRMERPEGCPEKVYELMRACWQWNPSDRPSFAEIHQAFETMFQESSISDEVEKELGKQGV

IC50 (ABL1 (64-515) [1]) | IC50 (ABL1 (64-515) [2]) | Compound
4 nM | 4.2 nM | CO[C@H]1CN(c2ccc(C(=O)Nc3ccc(OC(F)(F)F)cc3)cc2-c2cncs2)C[C@@H]1O (relative stereo) [Example 4, 4-(trans-3-Hydroxy-4-methoxypyrrolidin-1-yl)-3-(thiazol-5-yl)-N-(4-(trifluoromethoxy)phenyl)benzamide]
10 nM | 1.4 nM | O=C(Nc1ccc(OC(F)(F)F)cc1)c1cnc(N2C[C@H](CO)[C@@H](O)C2)c(-c2cncs2)c1 (relative stereo) [Example 17, 6-(trans-3-Hydroxy-4-(hydroxymethyl)pyrrolidin-1-yl)-5-(thiazol-5-yl)-N-(4-(trifluoromethoxy)phenyl)nicotinamide]
3 nM | 3.4 nM | N[C@@H]1CN(c2ncc(C(=O)Nc3ccc(OC(F)(F)Cl)cc3)cc2-c2ccn[nH]2)C[C@H]1F (relative stereo) [Example 52, 6-(trans-3-Amino-4-fluoropyrrolidin-1-yl)-N-(4-(chlorodifluoromethoxy)phenyl)-5-(1H-pyrazol-5-yl)nicotinamide]
 | 3.7 nM | O=C(Nc1ccc(OC(F)(F)F)cc1)c1cnc(N2C[C@H](O)[C@@H](F)C2)c(-c2ccn[nH]2)c1 (relative stereo) [Example 74, 6-(trans-3-Fluoro-4-hydroxypyrrolidin-1-yl)-5-(1H-pyrazol-5-yl)-N-(4-(trifluoromethoxy)phenyl)nicotinamide]
4 nM | 3.6 nM | CO[C@H]1CN(c2ncc(C(=O)Nc3ccc(OC(F)(F)F)cc3)cc2-c2ccn[nH]2)C[C@@H]1N (relative stereo) [Example 78, 6-(trans-3-Amino-4-methoxypyrrolidin-1-yl)-5-(1H-pyrazol-5-yl)-N-(4-(trifluoromethoxy)phenyl)nicotinamide]
1 nM | 0.7 nM | CO[C@H]1CN(c2ncc(C(=O)Nc3ccc(OC(F)(F)Cl)cc3)cc2-c2ccn[nH]2)C[C@@H]1N (relative stereo) [Example 79, 6-(trans-3-Amino-4-methoxypyrrolidin-1-yl)-N-(4-(chlorodifluoromethoxy)phenyl)-5-(1H-pyrazol-5-yl)nicotinamide]
0.4 nM | < 0.13 nM | NC[C@H]1CN(c2ncc(C(=O)Nc3ccc(OC(F)(F)Cl)cc3)cc2-c2ccn[nH]2)C[C@H]1O (relative stereo) [Example 80, 6-(cis-3-(Aminomethyl)-4-hydroxypyrrolidin-1-yl)-N-(4-(chlorodifluoromethoxy)phenyl)-5-(1H-pyrazol-5-yl)nicotinamide]
9 nM |  | O=C(Nc1ccc(OC(F)(F)F)cc1)c1cnc(N2CC[C@@H](O)C2)c(-c2cnoc2)c1 [Example 8, (R)-6-(3-Hydroxypyrrolidin-1-yl)-5-(isoxazol-4-yl)-N-(4-(trifluoromethoxy)phenyl)nicotinamide]
10 nM |  | O=C(Nc1ccc(OC(F)(F)F)cc1)c1cnc(N2CC[C@@H](O)C2)c(-c2nccs2)c1 [Example 9, (R)-6-(3-Hydroxypyrrolidin-1-yl)-5-(thiazol-2-yl)-N-(4-(trifluoromethoxy)phenyl)nicotinamide]
< 3 nM |  | Cc1ncc(-c2cc(C(=O)Nc3ccc(OC(F)(F)F)cc3)cnc2N2CC[C@@H](O)C2)s1 [Example 11, (R)-6-(3-Hydroxypyrrolidin-1-yl)-5-(2-methylthiazol-5-yl)-N-(4-(trifluoromethoxy)phenyl)nicotinamide]
< 3 nM |  | O=C(Nc1ccc(OC(F)(F)F)cc1)c1cnc(N2CC[C@@H](O)C2)c(-c2csc(CO)c2)c1 [Example 12, (R)-5-(5-(Hydroxymethyl)thiophen-3-yl)-6-(3-hydroxypyrrolidin-1-yl)-N-(4-(trifluoromethoxy)phenyl)nicotinamide]
< 3 nM | 0.8 nM | O=C(Nc1ccc(OC(F)(F)F)cc1)c1cnc(N2CCCC2)c(-c2ccn[nH]2)c1 [Example 15, 5-(1H-Pyrazol-5-yl)-6-(pyrrolidin-1-yl)-N-(4-(trifluoromethoxy)phenyl)nicotinamide]
< 3 nM | 1.1 nM | Cc1ncc(-c2cc(C(=O)Nc3ccc(OC(F)(F)F)cc3)cnc2N2CC[C@H](CO)C2)s1 [Example 16, (S)-6-(3-(Hydroxymethyl)pyrrolidin-1-yl)-5-(2-methylthiazol-5-yl)-N-(4-(trifluoromethoxy)phenyl)nicotinamide]
5 nM | 6.5 nM | O=C(Nc1ccc(OC(F)(F)F)cc1)c1cnc(N2CCOCC2)c(-c2ccn[nH]2)c1 [Example 18, 6-Morpholino-5-(1H-pyrazol-5-yl)-N-(4-(trifluoromethoxy)phenyl)nicotinamide]
< 3 nM | 5 nM | CN(CCO)c1ccc(C(=O)Nc2ccc(OC(F)(F)F)cc2)cc1-c1cncs1 [Example 20, 4-((2-Hydroxyethyl)(methyl)amino)-3-(thiazol-5-yl)-N-(4-(trifluoromethoxy)phenyl)benzamide]
2.7 nM | 3.4 nM | CN(CCO)c1ncc(C(=O)Nc2ccc(OC(F)(F)Cl)cc2)cc1-c1ccn[nH]1 [Example 23, N-(4-(Chlorodifluoromethoxy)phenyl)-6-((2-hydroxyethyl)(methyl)amino)-5-(1H-pyrazol-5-yl)nicotinamide]

IC50 (ABL1 (64-515) [1]) | IC50 (ABL1 (64-515) [2]) | Compound
3.7 nM | 2.6 nM | O=C(Nc1ccc(SC(F)(F)F)cc1)c1cnc(N2CC[C@@H](O)C2)c(-c2ccc[nH]2)c1 [Example 25, (R)-6-(3-Hydroxypyrrolidin-1-yl)-5-(1H-pyrrol-2-yl)-N-(4-((trifluoromethyl)thio)phenyl)nicotinamide]
11 nM | 1 nM | CN(CCO)c1ncc(C(=O)Nc2ccc(SC(F)(F)F)cc2)cc1-c1ccn[nH]1 [Example 26, 6-((2-Hydroxyethyl)(methyl)amino)-5-(1H-pyrazol-5-yl)-N-(4-((trifluoromethyl)thio)phenyl)nicotinamide]
3 nM | 4.2 nM | O=C(Nc1ccc(OC(F)(F)F)cc1)c1ccc(N2C[C@H](O)[C@@H](O)C2)c(-c2ccc[nH]2)c1 [Example 28, 4-((3S,4S)-3,4-Dihydroxypyrrolidin-1-yl)-3-(1H-pyrrol-2-yl)-N-(4-(trifluoromethoxy)phenyl)benzamide]
 | 3.3 nM | O=C(Nc1ccc(OC(F)(F)F)cc1)c1cnc(N2CCCC2)c(-c2cc(CO)n[nH]2)c1 [Example 43, 5-(3-(Hydroxymethyl)-1H-pyrazol-5-yl)-6-(pyrrolidin-1-yl)-N-(4-(trifluoromethoxy)phenyl)nicotinamide]
5.5 nM |  | O=C(Nc1ccc(OC(F)(F)Cl)cc1)c1cnc(N2CCC(F)(F)C2)c(-c2ccn[nH]2)c1 [Example 48, N-(4-(Chlorodifluoromethoxy)phenyl)-6-(3,3-difluoropyrrolidin-1-yl)-5-(1H-pyrazol-5-yl)nicotinamide]
1.3 nM |  | O=C(Nc1ccc(OC(F)(F)Cl)cc1)c1cnc(N2CCC3(CNC3)C2)c(-c2ccn[nH]2)c1 [Example 50, N-(4-(Chlorodifluoromethoxy)phenyl)-5-(1H-pyrazol-5-yl)-6-(2,6-diazaspiro[3.4]octan-6-yl)nicotinamide]
 | 0.4 nM | NCC1(O)CCN(c2ncc(C(=O)Nc3ccc(OC(F)(F)Cl)cc3)cc2-c2ccn[nH]2)C1 (stereo not shown) [Example 83, 6-(3-(Aminomethyl)-3-hydroxypyrrolidin-1-yl)-N-(4-(chlorodifluoromethoxy)phenyl)-5-(1H-pyrazol-5-yl)nicotinamide]
 | 23 nM | O=C(O)CCNc1ncc(C(=O)Nc2ccc(OC(F)(F)Cl)cc2)cc1-c1ccn[nH]1 [Example 94, 3-((5-((4-(Chlorodifluoromethoxy)phenyl)carbamoyl)-3-(1H-pyrazol-5-yl)pyridin-2-yl)amino)propanoic acid]
 | 47 nM | O=C(O)CCNc1ncc(C(=O)Nc2ccc(OC(F)(F)F)cc2)cc1-c1ccn[nH]1 [Example 95, 3-((3-(1H-Pyrazol-5-yl)-5-((4-(trifluoromethoxy)phenyl)carbamoyl)pyridin-2-yl)amino)propanoic acid]
 | 5.3 nM | O=C(Nc1ccc(OC(F)(F)Cl)cc1)c1cnc(NCCC(O)C(=O)O)c(-c2ccn[nH]2)c1 (stereo not shown) [Example 96, 4-((5-((4-(Chlorodifluoromethoxy)phenyl)carbamoyl)-3-(1H-pyrazol-5-yl)pyridin-2-yl)amino)-2-hydroxybutanoic acid]
 | 5.7 nM | O=C(Nc1ccc(OC(F)(F)Cl)cc1)c1cnc(NCC(O)CCO)c(-c2ccn[nH]2)c1 (stereo not shown) [Example 97, N-(4-(Chlorodifluoromethoxy)phenyl)-6-((2,4-dihydroxybutyl)amino)-5-(1H-pyrazol-5-yl)nicotinamide]
 | 5.7 nM | O=C(Nc1ccc(OC(F)(F)Cl)cc1)c1cnc(NC[C@@H](O)CCO)c(-c2ccn[nH]2)c1 [Example 98, (S)—N-(4-(Chlorodifluoromethoxy)phenyl)-6-((2,4-dihydroxybutyl)amino)-5-(1H-pyrazol-5-yl)nicotinamide]
 | 5.1 nM | O=C(Nc1ccc(OC(F)(F)Cl)cc1)c1cnc(NC[C@H](O)CCO)c(-c2ccn[nH]2)c1 [Example 99, (R)—N-(4-(Chlorodifluoromethoxy)phenyl)-6-((2,4-dihydroxybutyl)amino)-5-(1H-pyrazol-5-yl)nicotinamide]
 | 6.6 nM | O=C(Nc1ccc(OC(F)(F)Cl)cc1)c1cnc(NCCC(O)CO)c(-c2ccn[nH]2)c1 (stereo not shown) [Example 100, N-(4-(Chlorodifluoromethoxy)phenyl)-6-((3,4-dihydroxybutyl)amino)-5-(1H-pyrazol-5-yl)nicotinamide]
 | 7.8 nM | O=C(Nc1ccc(OC(F)(F)Cl)cc1)c1cnc(NCC[C@H](O)CO)c(-c2ccn[nH]2)c1 [Example 101, (S)—N-(4-(Chlorodifluoromethoxy)phenyl)-6-((3,4-dihydroxybutyl)amino)-5-(1H-pyrazol-5-yl)nicotinamide]
 | 13 nM | O=C(Nc1ccc(OC(F)(F)Cl)cc1)c1cnc(NCC[C@@H](O)CO)c(-c2ccn[nH]2)c1 [Example 102, (R)—N-(4-(Chlorodifluoromethoxy)phenyl)-6-((3,4-dihydroxybutyl)amino)-5-(1H-pyrazol-5-yl)nicotinamide]
